The values below come from patent US20060233877A1, “Betaine compositions” (priority 2002, published 2006).

Where “and” joins values, the source holds several entries; their conditions need not be identical. Equal entries are not always repeated.

The subject of data set [1] is laser-induced thrombosis in the mesenteric microcirculation of the rat. Kind of data set: Laser-induced thrombosis. It is filed as in vivo, Rats Wistar. As to conditions: for Duration of embolisation / Number of emboli: ASA 50 mg/kg s.c. The source says: Principle of Laser-Induced Thrombosis ([…]. et al., 1989; […]. et al., 1983) In this model, lesion of the vascular wall is induced by a laser beam. This beam causes a limited lesion of the vascular endothelium (only 1 to 2 cells are destroyed). This laying bare of the sub-endothelium, which is a thrombogenetic surface, results in the adherence of platelets via glycoproteins. This adherence of platelets is followed by their activation, they form pseudopods and secrete the content of their granules. This activation results in the appearance of glycoprotein binding sites which are necessary for the aggregation of the platelets between them and for platelet adhesion to the thrombogenic surfaces. This lesion is induced in the mesenteric microcirculation of the rat. It is immediately followed by the formation of a thrombus (in a few seconds). This thrombus, which rapidly enlarges under the influence of the blood flow, embolises before being formed again. The substances were subcutaneously injected 1 hour before the tests.

In data set [2] the test system is platelet aggregation induced by ADP. In words: Aggregation tests (whole blood aggregometry, ADP 5 μM) after subcutaneous dosing. It is filed as in vivo, Rats Wistar.
Data set [3] has as its system platelet adhesion and thrombus formation on collagen coated surface. Kind of data set: Parallel plate chamber: platelet adhesion and thrombus formation on collagen coated surface at 60 dynes/cm^2. The data set is classed as cell-based, human. An excerpt: The synergistic effect of asa/betaine on platelet adhesion is studied by perfusing blood on thrombogenic surface such as collagen under shear stress conditions.
Effect of betaine, aspirin or betaine/aspirin combination on platelet adhesion and thrombus formation on collagen coated surface.
We studied the effect of asafbetaine on platelet adhesion and thrombus formation under laminar flow at high shear stress (60 dynes/cm^2) on a collagen coated surface. This high shear stress mimics stenosed arteries. The blood of four fastened healthy subjects was sampled on day 1 as to determine basal values and betaine effect when added in vitro (table1), then the subjects were orally administrated a daily oral bolus dose of 350 mg of ASA during 3 days and their blood sampled on day 3 as to determine ASA effect and ASA+betaine effect when betaine is added in vitro to aspirinized blood at different concentrations (table2).
Citrated human aspirinized blood was pre-labelled with mepacrine and exposed to vehicle alone or betaine (20, 40, and 80 μg/ml) for 20 minutes before perfusion.
The effect of asa/betaine has been evaluated by performing experiments 60 dynes/cm^2 witch mimics arterial thrombosis. Before perfusion citrated whole blood was incubated with saline alone or betaine at concentration of 20, 40, and 80 μg/ml for 20 minutes and then perfused on collagen at 60 dynes/cm^2 At the end of 2 minutes of perfusion, cells were fixed and the area covered by thrombi was calculated by analysis of fluorescent thrombus images acquired by confocal microscopy.
Collagen coated slides. Glass slides were with collagen (200 μg/ml; equine collagen), placed for 1 hour in a water bath at 37° C., and the collagen gel allowed to evaporate for 30 minutes under a ventilated hood. Perfusion with citrated whole blood was started and continued for 2 minutes, then blood was withdrawn from the circuit, and platelet thrombi adherent to the collagen coated surface were fixed and stained with May Grunwald-Giemsa.
Images of platelet thrombi were digitised using a light microscope connected to a computer-based image analysis system. The surface occupied by thrombi and mean thrombus area were evaluated by automatic edge detection using built-in specific functions of a software image.
Platelet adhesion and thrombus formation. Platelet adhesion assay was performed according to the described previously (Alevriadou et al., 1993; Boccardo et al., 1997) with minor modifications. Blood collected on citrate (3,8%) was perfused through a flow chamber using a syringe pump. A flow chamber thermostatized to 37° C. was used in which one surface of the perfusion channel is a glass slide coated with equine collagen.
Flow chamber. The chamber dimensions (30 mm long, 1 mm large, and 150 μm in the thickness) allow to obtain a wide range of shear rate low flow rates of blood.
Citrated whole blood was incubated with the fluorescent dye mepacrine 10 μM (quinacrine dihydrochloride BP; Sigma Chemical, St Louis. MO). Mepacrine concentrated in the dense granules of platelets and in the granules of leukocytes and, at this concentration has no effect on normal platelet function (3). Any fluorescence within the erythrocytes is quenched by haemoglobin. Blood was pre-incubated 5 minutes at 37° C. before perfusion. The system was filled with PBS pH 7.3, then perfusion with blood was started and maintained at the constant flow rate of 1500 sec^−1 (corresponding to a shear stress of 60 dynes/cm^2). After 2 min, perfusion was stopped and the slide with the collagen monolayer was dehydrated and fixed in acetone for 20 minutes.
Images of platelet thrombi on collagen surface were acquired by a confocal inverted laser microscope. The surface occupied by thrombi was evaluated by automatic edge detection using built-in specific functions of a software image.

The conditions of data set [4]: cited from earlier work.
The nature of data set [5]: Solubility in water / concentrated betaine solution. It is filed as physicochemical.
[6] abbreviates: experiment A, ASA 100 mg/kg s.c.
Where [7] appears, read: experiment A, ASA 100 mg/kg s.c., mean.
The mark [8] stands for this setting: experiment B, ASA 50 mg/kg s.c.
The mark [9] stands for this setting: experiment B, ASA 50 mg/kg s.c., mean.

Turning to `CC(=O)Oc1ccccc1C(=O)O` [ASA, acetylsalicylic acid], the “Number of laser shoots” value is 4 and 3 in data set [1] (experiment A, ASA 100 mg/kg s.c. 1 hour before, rats 1-5 and mean); 3.2 ± 0.45 in data set [1] (experiment A, ASA 100 mg/kg s.c. 1 hour before, rats 1-5 and mean, mean); 2 and 3 in data set [1] (experiment B, ASA 50 mg/kg s.c. 1 hour before, n=6 rats and mean); 2.33 in data set [1] (experiment B, ASA 50 mg/kg s.c. 1 hour before, n=6 rats and mean, mean). Also, the Duration of embolisation is 4 min and 3 min and 2 min in data set [1] (experiment B); 2.5 min in data set [1] (experiment B, mean). In addition, the Number of emboli is 3 and 4 in data set [1] (experiment B); 3.33 in data set [1] (experiment B, mean). In addition, the Number laser shoots in data set [1] (experiment C, ASA 100 mg/kg s.c. 1 hour before, 6 rats and mean) is 4 and 3 and 2. For the same compound, the Amplitude in data set [2] (setting [6]) was 2 ohm and 3 ohm and 4 ohm; in data set [2] (setting [7]), 2.6 ± 0.89 ohm; in data set [2] (setting [8]), 8 Ohm and 9 Ohm and 10 Ohm and 7 Ohm; in data set [2] (setting [9]), 8.5 Ohm. The velocity in data set [2] (setting [6]) is 4 ohm/min and 3 ohm/min and 5 ohm/min; in data set [2] (setting [7]), 3.8 ± 0.84 ohm/min; in data set [2] (setting [8]), 7 Ohm/min and 8 Ohm/min and 9 Ohm/min and 6 Ohm/min; in data set [2] (setting [9]), 7.33 Ohm/min. In addition, the “area covered by thrombi” value in data set [3] (aspirinized blood (350 mg ASA oral daily, 3 days) + saline) was 72856 pixels/field and 121321 pixels/field and 132458 pixels/field and 122652 pixels/field. The solubility in water entry in data set [4] was “about 0.3%”.

Take `C[N+](C)(C)CC(=O)O` [betaine, Betaine monohydrate]: the “area covered by thrombi” value is 88746 pixels/field and 135241 pixels/field and 122369 pixels/field and 154425 pixels/field in data set [3] (betaine 20 μg/ml in vitro, 20 minutes, subjects 1-4 and mean, monohydrate); 66852 pixels/field and 92433 pixels/field and 89628 pixels/field and 95645 pixels/field in data set [3] (betaine 40 μg/ml in vitro, 20 minutes, monohydrate); 57544 pixels/field and 81585 pixels/field and 76654 pixels/field and 82579 pixels/field in data set [3] (betaine 80 μg/ml in vitro, 20 minutes, monohydrate). Further, in data set [3] (betaine 80 μg/ml, Table 1), the “reduction in platelet deposition in respect to vehicle” value is −49%. Besides, the “effect on platelet deposition and thrombus formation” value in data set [3] (high shear stress, versus vehicle-treated blood) is “significantly inhibit platelet deposition and consequent thrombus formation”.

As to `O=C(O)c1ccccc1O` [salicylic acid], in data set [5] (cold concentrated betaine solution), the “amount that can be dissolved” value was “Up to 5%”. The “amount dissolved relative to pure water” value in data set [5] (cold concentrated betaine solution vs pure water) amounted to 15 times.
